# US11534412B2, “Application of totarol and pharmaceutical composition containing totarol” (Emergopharm SP. Z O.O. SP.K., priority 2017, dated 2022)
# Tested on: Streptococcus agalactiae - clinical strain
# Assay: Determination of the MIC value of totarol, broth dilution in 96-well plates with OD and quantitative culture
# Format: cell-based
# Settings: for OD, average of 3 measurements / OD: 620 nm
# Description: Test of antibacterial activity of totarol using DMI (dimethylisosorbide) as a solvent.
# 1 ml of the suspension was collected to 9 ml of a TSB broth ([…]). Suspensions with a dilution of 10^−6 were prepared in the described way. A suspension with a cell density of 10^5 cfu/ml was selected for further investigations. For each strain, 2 96-well plates were prepared: the first one was intended for the OD measurement, the second one—for quantitative culture on solid media. • A/ to wells B1-D1, B2-D2 and B-D 4-11, 100 µl of the broth were added; • B/ to wells B3-D3, 200 µl of the broth were added; • C/ to wells B1-D1, 1 µl of stock I was added; • D/ to wells B2-D2, 1 µl of stock II was added; • E/ to wells B3-D3, 2 µl of stock III were added. Using a multichannel pipette, 100 µl of the sample were collected from each of the B3-D3 wells and placed in wells B4-D4 (mixing by sucking the content in and letting it out for 5 times). The pipette tips were replaced and 100 µl of the content were collected from of the B4-D4 wells, and placed in wells B5-D5, mixing as previously. These operations were repeated through the wells B11-D11. The content in the B11-D11 wells was mixed, and 100 µl of the fluid were collected and discarded. This way, a series of dilutions of totarol samples in DMI in the range of 0.32% to 0.0004% was obtained. Then, 100 µl of a corresponding bacterial culture were added to the wells B, C, D 1-11. In consequence, a change in the final concentration range occurred, to 0.16%-0.0002%. Control Preparation: • Negative control: 100 µl of the broth+1 pl DMI were added to the Al well. • Positive control (I): 100 µl of the broth with the bacterial culture were added to the wells E1-G1. • Diluent positive control (II): 100 µl of the broth with the bacterial culture+1 pl DMI were added to the wells E2-G2. The OD value in the individual wells was read at the wavelength of 620 nm (read time 0). From the second 96-well plate, a culture was inoculated by a quantitative method from every dilution onto a well with a proper solid medium, and incubated for 24 h at 37° C. under aerobic or anaerobic conditions, depending on the strain. The plates were incubated under aerobic conditions or in an atmosphere of an elevated CO2 concentration (for the strains requiring it) in an incubator at 37° C. The OD was read after 8 h, 16 h, and 24 h, respectively. Before every OD measurement, the contents of the wells were mixed delicately. In parallel to the OD readout, cultures we inoculated from the second 96-well plate, from every dilution, into plates with a proper solid medium, and incubated for 24 h at 37° C., under aerobic or anaerobic conditions. For the analysis of the experimental results, an average value of the OD measurement obtained from three repetitions in the individual times (0, 8, 16, and 24 h) for the individual microbes (Gardnerella vaginalis, Streptococcus agalactiae, Enterococcus faecalis, Lactobacillus gasseri/plantarum) was taken. Additionally, the number of bacteria grown on solid media was taken into account. The results of the tests confirm the specific, concentration-dependent selectiveness, and the high antibacterial effectiveness of totarol against the pathogenic microorganisms: Gardnerella vaginalis, Streptococcus agalactiae, Enterococcus faecalis at low MIC values safe for bacteria of the Lactobacillus genus.
smiles,measurement,setting,value
"CC(C)c1c(O)ccc2c1CC[C@H]1C(C)(C)CCC[C@]21C [Totarol, totarol]",MIC value,S. agalactiae,0.0013%
same,Viable bacterial count by quantitative culture (cfu/ml),"totarol 0.0002%, 0 h",3.4 × 10^5 cfu/ml
same,"OD, average of 3 measurements","totarol 0.0002%, 0 h",0.289
same,Viable bacterial count by quantitative culture (cfu/ml),"totarol 0.0002%, 8 h",4 × 10^6 cfu/ml
same,"OD, average of 3 measurements","totarol 0.0002%, 8 h",0.314
same,Viable bacterial count by quantitative culture (cfu/ml),"totarol 0.0002%, 16 h",1.1 × 10^6 cfu/ml
same,"OD, average of 3 measurements","totarol 0.0002%, 16 h",0.498
same,Viable bacterial count by quantitative culture (cfu/ml),"totarol 0.0002%, 24 h",1 × 10^7 cfu/ml
same,OD,"totarol 0.0002%, 24 h",0.682
same,Viable bacterial count by quantitative culture (cfu/ml),"totarol 0.0004%, 0 h",6 × 10^5 cfu/ml
same,"OD, average of 3 measurements","totarol 0.0004%, 0 h",0.305
same,Viable bacterial count by quantitative culture (cfu/ml),"totarol 0.0004%, 8 h",6 × 10^6 cfu/ml
same,"OD, average of 3 measurements","totarol 0.0004%, 8 h",0.318
same,Viable bacterial count by quantitative culture (cfu/ml),"totarol 0.0004%, 16 h",9.1 × 10^5 cfu/ml
same,"OD, average of 3 measurements","totarol 0.0004%, 16 h",0.493
same,Viable bacterial count by quantitative culture (cfu/ml),"totarol 0.0004%, 24 h",2 × 10^7 cfu/ml
same,OD,"totarol 0.0004%, 24 h",0.668
same,Viable bacterial count by quantitative culture (cfu/ml),"totarol 0.0007%, 0 h",4.5 × 10^5 cfu/ml
same,"OD, average of 3 measurements","totarol 0.0007%, 0 h",0.297
same,Inoculation cfu/ml,"totarol 0.0007%, 8 h",6 × 10^4 cfu/ml
same,"OD, average of 3 measurements","totarol 0.0007%, 8 h",0.319
same,Viable bacterial count by quantitative culture (cfu/ml),"totarol 0.0007%, 16 h",3.5 × 10^6 cfu/ml
same,"OD, average of 3 measurements","totarol 0.0007%, 16 h",0.630
same,Viable bacterial count by quantitative culture (cfu/ml),"totarol 0.0007%, 24 h",6 × 10^7 cfu/ml
same,OD,"totarol 0.0007%, 24 h",0.941
same,Viable bacterial count by quantitative culture (cfu/ml),"totarol 0.0013%, 0 h",3.3 × 10^5 cfu/ml
same,"OD, average of 3 measurements","totarol 0.0013%, 0 h",0.299
same,Viable bacterial count by quantitative culture (cfu/ml),"totarol 0.0013%, 8 h",0 cfu/ml
same,"OD, average of 3 measurements","totarol 0.0013%, 8 h",0.302
same,Viable bacterial count by quantitative culture (cfu/ml),"totarol 0.0013%, 16 h",0 cfu/ml
same,"OD, average of 3 measurements","totarol 0.0013%, 16 h",0.302
same,Viable bacterial count by quantitative culture (cfu/ml),"totarol 0.0013%, 24 h",0 cfu/ml
same,OD,"totarol 0.0013%, 24 h",0.302
same,Viable bacterial count by quantitative culture (cfu/ml),"totarol 0.0025%, 0 h",2.6 × 10^5 cfu/ml
same,"OD, average of 3 measurements","totarol 0.0025%, 0 h",0.289
same,Viable bacterial count by quantitative culture (cfu/ml),"totarol 0.0025%, 8 h",0 cfu/ml
same,"OD, average of 3 measurements","totarol 0.0025%, 8 h",0.290
same,Viable bacterial count by quantitative culture (cfu/ml),"totarol 0.0025%, 16 h",0 cfu/ml
same,"OD, average of 3 measurements","totarol 0.0025%, 16 h",0.291
same,Viable bacterial count by quantitative culture (cfu/ml),"totarol 0.0025%, 24 h",0 cfu/ml
same,OD,"totarol 0.0025%, 24 h",0.291
same,Viable bacterial count by quantitative culture (cfu/ml),"totarol 0.005%, 0 h",1.5 × 10^5 cfu/ml
same,"OD, average of 3 measurements","totarol 0.005%, 0 h",0.288
same,Viable bacterial count by quantitative culture (cfu/ml),"totarol 0.005%, 8 h",0 cfu/ml
same,"OD, average of 3 measurements","totarol 0.005%, 8 h",0.292
same,Viable bacterial count by quantitative culture (cfu/ml),"totarol 0.005%, 16 h",0 cfu/ml
same,"OD, average of 3 measurements","totarol 0.005%, 16 h",0.296
same,Viable bacterial count by quantitative culture (cfu/ml),"totarol 0.005%, 24 h",0 cfu/ml
same,OD,"totarol 0.005%, 24 h",0.300
same,Viable bacterial count by quantitative culture (cfu/ml),"totarol 0.01%, 0 h",10^5 cfu/ml
same,"OD, average of 3 measurements","totarol 0.01%, 0 h",0.297
same,Viable bacterial count by quantitative culture (cfu/ml),"totarol 0.01%, 8 h",0 cfu/ml
same,"OD, average of 3 measurements","totarol 0.01%, 8 h",0.295
same,Viable bacterial count by quantitative culture (cfu/ml),"totarol 0.01%, 16 h",0 cfu/ml
same,"OD, average of 3 measurements","totarol 0.01%, 16 h",0.301
same,Viable bacterial count by quantitative culture (cfu/ml),"totarol 0.01%, 24 h",0 cfu/ml
same,OD,"totarol 0.01%, 24 h",0.307
same,Viable bacterial count by quantitative culture (cfu/ml),"totarol 0.02%, 0 h",10^5 cfu/ml
same,"OD, average of 3 measurements","totarol 0.02%, 0 h",0.318
same,Viable bacterial count by quantitative culture (cfu/ml),"totarol 0.02%, 8 h",0 cfu/ml
same,"OD, average of 3 measurements","totarol 0.02%, 8 h",0.323
same,Viable bacterial count by quantitative culture (cfu/ml),"totarol 0.02%, 16 h",0 cfu/ml
same,"OD, average of 3 measurements","totarol 0.02%, 16 h",0.324
same,Viable bacterial count by quantitative culture (cfu/ml),"totarol 0.02%, 24 h",0 cfu/ml
same,OD,"totarol 0.02%, 24 h",0.324
same,Viable bacterial count by quantitative culture (cfu/ml),"totarol 0.04%, 0 h",3 × 10^5 cfu/ml
same,"OD, average of 3 measurements","totarol 0.04%, 0 h",0.406
same,Viable bacterial count by quantitative culture (cfu/ml),"totarol 0.04%, 8 h",0 cfu/ml
same,"OD, average of 3 measurements","totarol 0.04%, 8 h",0.535
same,Viable bacterial count by quantitative culture (cfu/ml),"totarol 0.04%, 16 h",0 cfu/ml
same,"OD, average of 3 measurements","totarol 0.04%, 16 h",0.489
same,Viable bacterial count by quantitative culture (cfu/ml),"totarol 0.04%, 24 h",0 cfu/ml
same,OD,"totarol 0.04%, 24 h",0.405
same,Viable bacterial count by quantitative culture (cfu/ml),"totarol 0.08%, 0 h",5 × 10^5 cfu/ml
same,"OD, average of 3 measurements","totarol 0.08%, 0 h",0.563
same,Viable bacterial count by quantitative culture (cfu/ml),"totarol 0.08%, 8 h",0 cfu/ml
same,"OD, average of 3 measurements","totarol 0.08%, 8 h",0.564
same,Viable bacterial count by quantitative culture (cfu/ml),"totarol 0.08%, 16 h",0 cfu/ml
same,"OD, average of 3 measurements","totarol 0.08%, 16 h",0.540
same,Viable bacterial count by quantitative culture (cfu/ml),"totarol 0.08%, 24 h",0 cfu/ml
same,OD,"totarol 0.08%, 24 h",0.430
same,Viable bacterial count by quantitative culture (cfu/ml),"totarol 0.16%, 0 h",2 × 10^5 cfu/ml
same,"OD, average of 3 measurements","totarol 0.16%, 0 h",0.512
same,Viable bacterial count by quantitative culture (cfu/ml),"totarol 0.16%, 8 h",0 cfu/ml
same,"OD, average of 3 measurements","totarol 0.16%, 8 h",0.605
same,Viable bacterial count by quantitative culture (cfu/ml),"totarol 0.16%, 16 h",0 cfu/ml
same,"OD, average of 3 measurements","totarol 0.16%, 16 h",0.569
same,Viable bacterial count by quantitative culture (cfu/ml),"totarol 0.16%, 24 h",0 cfu/ml
same,OD,"totarol 0.16%, 24 h",0.615
